Patent publication US6852673B2, “Herbicidal pyridine compounds” (BASF Aktiengesellschaft, priority 1998, dated 2005)

Experiments:
Type in all cases: in vivo
Lamium purpureum (LAMPU) [1] = test: Pre-emergence herbicidal evaluation, purple deadnettle
Summary of the method: (§1)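 Seeds are mixed into potting soil and planted; the pots are sprayed with aqueous acetone containing compound (about 0.0125 to 0.4 kg/ha equivalent); they are kept and watered in a greenhouse; each pot is rated at 2 to 4 weeks.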

Lamium purpureum (LAMPU) [2] = test: Post-emergence herbicidal evaluation, purple deadnettle; conditions: rated 2 to 4 weeks after treatment
Summary of the method: (§2)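 Post-emergence spray; acetone stock diluted in water; dose ≈0.03–0.4 kg/ha per pot; greenhouse, routine care; visual score at 2–4 wk, 0 = untreated-like, 9 = dead.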

[3] = system: Triticum aestivum (TRZAW); test: Pre-emergence herbicidal evaluation, winter wheat
Summary of the method: as §1

[4] = system: Abutilon theophrasti (ABUTH); test: Pre-emergence herbicidal evaluation, velvetleaf
Summary of the method: as §1

Zea mays (ZEAMX) = test: Post-emergence herbicidal evaluation, maize; conditions: rated 2 to 4 weeks after treatment
Summary of the method: as §2

Galium aparine (GALAP) [5] = test: Post-emergence herbicidal evaluation, cleaver; conditions: rated 2 to 4 weeks after treatment
Summary of the method: as §2

Hordeum vulgare (HORVW) = test: Post-emergence herbicidal evaluation, winter barley; conditions: rated 2 to 4 weeks after treatment
Summary of the method: as §2

[6] = system: Triticum aestivum (TRZAW); test: Post-emergence herbicidal evaluation, winter wheat; conditions: rated 2 to 4 weeks after treatment
Summary of the method: as §2

[7] = system: Ambrosia artemiisifolia (AMBEL); test: Post-emergence herbicidal evaluation, ragweed; conditions: rated 2 to 4 weeks after treatment
Summary of the method: as §2

Oryza sativum (ORYSA) [8] = test: Pre-emergence herbicidal evaluation, rice
Summary of the method: as §1

Galium aparine (GALAP) [9] = test: Pre-emergence herbicidal evaluation, cleaver
Summary of the method: as §1

Setaria viridis (SETVI) [10] = test: Pre-emergence herbicidal evaluation, green foxtail
Summary of the method: as §1

Solanum nigrum (SOLNI) [11] = test: Post-emergence herbicidal evaluation, black nightshade; conditions: rated 2 to 4 weeks after treatment
Summary of the method: as §2

[12] = system: Abutilon theophrasti (ABUTH); test: Post-emergence herbicidal evaluation, velvetleaf; conditions: rated 2 to 4 weeks after treatment
Summary of the method: as §2

Solanum nigrum (SOLNI) [13] = test: Pre-emergence herbicidal evaluation, black nightshade
Summary of the method: as §1

[14] = system: Ipomoea hederacea (IPOHE); test: Post-emergence herbicidal evaluation, morning glory; conditions: rated 2 to 4 weeks after treatment
Summary of the method: as §2

[15] = system: Matricaria inodora (MATIN); test: Post-emergence herbicidal evaluation, mayweed; conditions: rated 2 to 4 weeks after treatment
Summary of the method: as §2

Setaria viridis (SETVI) [16] = test: Post-emergence herbicidal evaluation, green foxtail; conditions: for SETVI rating: rated 2 to 4 weeks after treatment
Summary of the method: as §2

Glycine max (GLXMA) = test: Pre-emergence herbicidal evaluation, soyabeans
Summary of the method: as §1

[17] = system: Echinochloa grus galli (ECHCG); test: Post-emergence herbicidal evaluation, barnyard grass; conditions: rated 2 to 4 weeks after treatment
Summary of the method: as §2

[18] = system: Alopecurus myosuroides (ALOMY); test: Pre-emergence herbicidal evaluation, black grass
Summary of the method: as §1

Oryza sativum (ORYSA) [19] = test: Post-emergence herbicidal evaluation, rice; conditions: rated 2 to 4 weeks after treatment
Summary of the method: as §2

Stellaria media (STEME) = test: Pre-emergence herbicidal evaluation, chickweed
Summary of the method: as §1

[20] = system: Alopecurus myosuroides (ALOMY); test: Post-emergence herbicidal evaluation, black grass; conditions: rated 2 to 4 weeks after treatment
Summary of the method: as §2

[21] = system: Matricaria inodora (MATIN); test: Pre-emergence herbicidal evaluation, mayweed
Summary of the method: as §1

[22] = system: Ambrosia artemiisifolia (AMBEL); test: Pre-emergence herbicidal evaluation, ragweed
Summary of the method: as §1

For `Cc1cc(OCC(F)(F)C(F)(F)C(F)(F)C(F)F)nc(Oc2cc(C(F)(F)F)nn2C)c1` [Example 8], the LAMPU rating (Lamium purpureum (LAMPU) [1]; dose 0.013 kg/ha) was 8 (8 - Approaching complete kill), the LAMPU rating (Lamium purpureum (LAMPU) [1]; dose 0.025 kg/ha) was 8 (8 - Approaching complete kill) and the LAMPU rating (Lamium purpureum (LAMPU) [1]; dose 0.1 kg/ha) was 9 (9 - Complete kill). For the same compound, the LAMPU rating (Lamium purpureum (LAMPU) [1]; dose 0.4 kg/ha) was 9 (9 - Complete kill), the LAMPU rating (Lamium purpureum (LAMPU) [2]; dose 0.03 kg/ha) was 8 (8 - Approaching complete kill) and the LAMPU rating (Lamium purpureum (LAMPU) [2]; dose 0.1 kg/ha) was 8 (8 - Approaching complete kill). The LAMPU rating (Lamium purpureum (LAMPU) [2]; dose 0.4 kg/ha) was 9 (9 - Complete kill), the TRZAW rating ([3]; dose 0.013 kg/ha) was 0 (0 - No effect) and the TRZAW rating ([3]; dose 0.025 kg/ha) was 0 (0 - No effect). The TRZAW rating ([3]; dose 0.1 kg/ha) was 1 (1 - Trace effect), the TRZAW rating ([3]; dose 0.4 kg/ha) was 3 (3 - Moderate effect) and the ABUTH rating ([4]; dose 0.013 kg/ha) was 0 (0 - No effect). For the same compound, the ABUTH rating ([4]; dose 0.025 kg/ha) was 1 (1 - Trace effect), the ABUTH rating ([4]; dose 0.1 kg/ha) was 7 (7 - Good herbicidal effect) and the ABUTH rating ([4]; dose 0.4 kg/ha) was 9 (9 - Complete kill). For the same compound, the ZEAMX rating (Zea mays (ZEAMX); dose 0.03 kg/ha) was 1 (1 - Trace effect), the ZEAMX rating (Zea mays (ZEAMX); dose 0.1 kg/ha) was 1 (1 - Trace effect) and the ZEAMX rating (Zea mays (ZEAMX); dose 0.4 kg/ha) was 3 (3 - Moderate effect). For the same compound, the GALAP rating (Galium aparine (GALAP) [5]; dose 0.03 kg/ha) was 5 (5 - Definite injury), the GALAP rating (Galium aparine (GALAP) [5]; dose 0.1 kg/ha) was 7 (7 - Good herbicidal effect) and the GALAP rating (Galium aparine (GALAP) [5]; dose 0.4 kg/ha) was 8 (8 - Approaching complete kill). The HORVW rating (Hordeum vulgare (HORVW); dose 0.03 kg/ha) was 2 (2 - Slight effect), the HORVW rating (Hordeum vulgare (HORVW); dose 0.1 kg/ha) was 3 (3 - Moderate effect) and the HORVW rating (Hordeum vulgare (HORVW); dose 0.4 kg/ha) was 3 (3 - Moderate effect). For the same compound, the TRZAW rating ([6]; dose 0.03 kg/ha) was 2 (2 - Slight effect), the TRZAW rating ([6]; dose 0.1 kg/ha) was 2 (2 - Slight effect) and the TRZAW rating ([6]; dose 0.4 kg/ha) was 3 (3 - Moderate effect). For the same compound, the AMBEL rating ([7]; dose 0.03 kg/ha) was 5 (5 - Definite injury), the AMBEL rating ([7]; dose 0.1 kg/ha) was 8 (8 - Approaching complete kill) and the AMBEL rating ([7]; dose 0.4 kg/ha) was 8 (8 - Approaching complete kill). For the same compound, the ORYSA rating (Oryza sativum (ORYSA) [8]; dose 0.013 kg/ha) was 0 (0 - No effect), the ORYSA rating (Oryza sativum (ORYSA) [8]; dose 0.025 kg/ha) was 0 (0 - No effect) and the ORYSA rating (Oryza sativum (ORYSA) [8]; dose 0.1 kg/ha) was 1 (1 - Trace effect). For the same compound, the ORYSA rating (Oryza sativum (ORYSA) [8]; dose 0.4 kg/ha) was 1 (1 - Trace effect), the GALAP rating (Galium aparine (GALAP) [9]; dose 0.013 kg/ha) was 1 (1 - Trace effect) and the GALAP rating (Galium aparine (GALAP) [9]; dose 0.025 kg/ha) was 1 (1 - Trace effect). For the same compound, the GALAP rating (Galium aparine (GALAP) [9]; dose 0.1 kg/ha) was 6 (6 - Herbicidal effect), the GALAP rating (Galium aparine (GALAP) [9]; dose 0.4 kg/ha) was 8 (8 - Approaching complete kill) and the SETVI rating (Setaria viridis (SETVI) [10]; dose 0.013 kg/ha) was 1 (1 - Trace effect). For the same compound, the SETVI rating (Setaria viridis (SETVI) [10]; dose 0.025 kg/ha) was 3 (3 - Moderate effect), the SETVI rating (Setaria viridis (SETVI) [10]; dose 0.1 kg/ha) was 9 (9 - Complete kill) and the SETVI rating (Setaria viridis (SETVI) [10]; dose 0.4 kg/ha) was 9 (9 - Complete kill). The SOLNI rating (Solanum nigrum (SOLNI) [11]; dose 0.03 kg/ha) was 3 (3 - Moderate effect), the SOLNI rating (Solanum nigrum (SOLNI) [11]; dose 0.1 kg/ha) was 5 (5 - Definite injury) and the SOLNI rating (Solanum nigrum (SOLNI) [11]; dose 0.4 kg/ha) was 8 (8 - Approaching complete kill). The ABUTH rating ([12]; dose 0.03 kg/ha) was 1 (1 - Trace effect), the ABUTH rating ([12]; dose 0.1 kg/ha) was 5 (5 - Definite injury) and the ABUTH rating ([12]; dose 0.4 kg/ha) was 7 (7 - Good herbicidal effect). The SOLNI rating (Solanum nigrum (SOLNI) [13]; dose 0.013 kg/ha) was 1 (1 - Trace effect), the SOLNI rating (Solanum nigrum (SOLNI) [13]; dose 0.025 kg/ha) was 3 (3 - Moderate effect) and the SOLNI rating (Solanum nigrum (SOLNI) [13]; dose 0.1 kg/ha) was 8 (8 - Approaching complete kill). For the same compound, the SOLNI rating (Solanum nigrum (SOLNI) [13]; dose 0.4 kg/ha) was 8 (8 - Approaching complete kill), the IPOHE rating ([14]; dose 0.03 kg/ha) was 7 (7 - Good herbicidal effect) and the IPOHE rating ([14]; dose 0.1 kg/ha) was 9 (9 - Complete kill). The IPOHE rating ([14]; dose 0.4 kg/ha) was 9 (9 - Complete kill), the MATIN rating ([15]; dose 0.03 kg/ha) was 9 (9 - Complete kill) and the MATIN rating ([15]; dose 0.1 kg/ha) was 9 (9 - Complete kill). The MATIN rating ([15]; dose 0.4 kg/ha) was 9 (9 - Complete kill), the SETVI rating (Setaria viridis (SETVI) [16]; dose 0.03 kg/ha) was 3 (3 - Moderate effect) and the SETVI rating (Setaria viridis (SETVI) [16]; dose 0.1 kg/ha) was 6 (6 - Herbicidal effect). For the same compound, the SETVI rating (Setaria viridis (SETVI) [16]; dose 0.4 kg/ha) was 8 (8 - Approaching complete kill), the “grass control such as Setaria virides” value (Setaria viridis (SETVI) [16]; in barley at crop selective doses) was “effective” and the GLXMA rating (Glycine max (GLXMA); dose 0.013 kg/ha) was 0 (0 - No effect). The GLXMA rating (Glycine max (GLXMA); dose 0.025 kg/ha) was 1 (1 - Trace effect), the GLXMA rating (Glycine max (GLXMA); dose 0.1 kg/ha) was 2 (2 - Slight effect) and the GLXMA rating (Glycine max (GLXMA); dose 0.4 kg/ha) was 4 (4 - Injury). For the same compound, the ECHCG rating ([17]; dose 0.03 kg/ha) was 2 (2 - Slight effect), the ECHCG rating ([17]; dose 0.1 kg/ha) was 5 (5 - Definite injury) and the ECHCG rating ([17]; dose 0.4 kg/ha) was 8 (8 - Approaching complete kill). For the same compound, the ALOMY rating ([18]; dose 0.013 kg/ha) was 1 (1 - Trace effect), the ALOMY rating ([18]; dose 0.025 kg/ha) was 1 (1 - Trace effect) and the ALOMY rating ([18]; dose 0.1 kg/ha) was 7 (7 - Good herbicidal effect). The ALOMY rating ([18]; dose 0.4 kg/ha) was 8 (8 - Approaching complete kill), the ORYSA rating (Oryza sativum (ORYSA) [19]; dose 0.03 kg/ha) was 1 (1 - Trace effect) and the ORYSA rating (Oryza sativum (ORYSA) [19]; dose 0.1 kg/ha) was 2 (2 - Slight effect). For the same compound, the ORYSA rating (Oryza sativum (ORYSA) [19]; dose 0.4 kg/ha) was 2 (2 - Slight effect), the STEME rating (Stellaria media (STEME); dose 0.013 kg/ha) was 1 (1 - Trace effect) and the STEME rating (Stellaria media (STEME); dose 0.025 kg/ha) was 4 (4 - Injury). For the same compound, the STEME rating (Stellaria media (STEME); dose 0.1 kg/ha) was 9 (9 - Complete kill), the STEME rating (Stellaria media (STEME); dose 0.4 kg/ha) was 9 (9 - Complete kill) and the ALOMY rating ([20]; dose 0.03 kg/ha) was 2 (2 - Slight effect). For the same compound, the ALOMY rating ([20]; dose 0.1 kg/ha) was 7 (7 - Good herbicidal effect), the ALOMY rating ([20]; dose 0.4 kg/ha) was 8 (8 - Approaching complete kill) and the MATIN rating ([21]; dose 0.013 kg/ha) was 8 (8 - Approaching complete kill). For the same compound, the MATIN rating ([21]; dose 0.025 kg/ha) was 8 (8 - Approaching complete kill), the MATIN rating ([21]; dose 0.1 kg/ha) was 9 (9 - Complete kill) and the MATIN rating ([21]; dose 0.4 kg/ha) was 9 (9 - Complete kill). For the same compound, the AMBEL rating ([22]; dose 0.013 kg/ha) was 5 (5 - Definite injury), the AMBEL rating ([22]; dose 0.025 kg/ha) was 7 (7 - Good herbicidal effect) and the AMBEL rating ([22]; dose 0.1 kg/ha) was 8 (8 - Approaching complete kill). The AMBEL rating ([22]; dose 0.4 kg/ha) was 8 (8 - Approaching complete kill).
